Measurements published in patent publication US9248163B2, “Insulin-like growth factor binding protein 7 for treatment of cancer” (University of Massachusetts, priority 2007, dated 2016).

What was measured:
SK-MEL-28 cells = assay: Immunoblot analysis of SMARCB1, BNIP3L and activated caspase 3; format: cell-based, human; settings: 24 hours, unlike rIGFBP7
Method: (§1) To prepare cell extracts, cells were lysed in Laemmli buffer; for phospho-proteins, cells were lysed in the presence of a phosphatase inhibitor cocktail (Sigma). To prepare conditioned media, cells were grown in Opti-MEM™ (Invitrogen) for 24 hours, and media was harvested and concentrated using Centricon™ plus 20 tubes (Millipore). Conditioned media was normalized to cell number prior to loading the gel. For the experiments shown in FIGS. 3D and 4C, rIGFBP7 was added to the culture medium at a concentration of 10 μg/ml. For the MEK/RAF inhibitor experiment of FIG. 4D, SK-MEL-28 cells were treated with 2 μg/ml or 10 μg/ml rIGFBP7, 20 μM or 40 μM of the MEK inhibitor PD98054 (Calbiochem), or 5 nM or 10 nM the RAF inhibitor GW5074 (Sigma) for 24 hours prior to harvesting cells. Proteins were resolved by SDS-PAGE and transferred to nitrocellulose. Blots were probed with the following antibodies: α-p16 (Abcam), α-acetylated H3K9 (Upstate), α-IGFBP7 (Santa Cruz), α-SMARCB1 (Abnova), α-BNIP3L (Proscience), α-BRAFV600E (Santa Cruz), α-cleaved caspase-3 p11 (Santa Cruz), α-β-actin (Sigma), α-phospho-ERK (Cell Signaling) or α-ERK (Cell Signaling).

[1] = tested on: BRAF-MEK-ERK signaling in SK-MEL-28 cells; assay: Immunoblot analysis of BRAF-MEK-ERK signaling (phospho-ERK, activated MEK1/2, RKIP); format: cell-based, human; settings: SK-MEL-28 cells, 24 hours; PD98054 20 or 40 μM, GW5074 5 or 10 nM
Method: as §1
To test this idea, rIGFBP7 was added to BRAFV600E-positive SK-MEL-28 melanoma cells, and the levels of total and activated ERK (phospho-ERK) were analyzed.

[2] = tested on: NCI 60 panel of human cancer cell lines; assay: Growth inhibition of the NCI 60 panel cell lines by MEK inhibitor; format: cell-based
Method: The growth dependence of the above cell lines on the Ras-BRAF-MEK-Erk signaling pathway was also determined. 1.5×10^5 cells of each cell line were treated with 20 μM of the MEK inhibitor U0216 (Cell Signaling) for 24 hours, and growth of the cell lines was determined. U0216 inhibited growth in 11/11 (100%) of the cell lines that contained a BRAF mutation and 11/13 (84.6) of the cell lines that contained a RAS mutation. The one cell line that contained both a BRAF and a RAS mutation was susceptible to growth inhibition by U0216.

[3] = tested on: IGFBP7 expression in melanoma cell lines; assay: IGFBP7 mRNA (qRT-PCR) in melanoma cell lines after 5-aza treatment; format: cell-based, human; settings: 10 μM, 48 hours
Method: Total RNA was isolated using TRIZOLTM (Invitrogen) 7 days after retroviral transduction and puromycin selection. Reverse transcription was performed using SuperScriptTM II Reverse Transcriptase (Invitrogen) as per the manufacturer's instructions, followed by quantitative real-time PCR using Platinum SYBRTM Green qPCR SuperMix-UDG with Rox (Invitrogen). Bisulfite modification was carried out essentially as described (Frommer et al., 1992, Proc. Natl. Acad. Sci. USA, 89:1827-31), except that hydroquinone was used at a concentration of 125 mM during bisulfite treatment (carried out in the dark) and DNA was desalted on […] columns (Qiagen) after the bisulfite reaction. Six clones were sequenced for each cell line or human tissue sample. For 5-aza-2'-deoxycytidine (5-aza) treatment, melanoma cell lines were treated with 10 μM 5-aza (Calbiochem) for 48 hours.

O=C1Nc2ccc(I)cc2/C1=C/c1cc(Br)c(O)c(Br)c1 [RAF inhibitor, reference compound]
BNIP3L levels and induction of apoptosis (SK-MEL-28 cells): did not increase BINP3L levels or efficiently induce apoptosis
BRAF-MEK-ERK signaling [1]: blocked BRAF-MEK-ERK signaling

N#CC(=C(/N)Sc1ccccc1N)/C(C#N)=C(/N)Sc1ccccc1N [U0216]
cell lines in which growth was inhibited ([2]; cell lines that contained a BRAF mutation (11/11), 20 μM, 24 hours): 100%
cell lines in which growth was inhibited ([2]; cell lines that contained a RAS mutation (11/13), 20 μM, 24 hours): 84.6
cell lines susceptible to growth inhibition ([2]; cell lines without a BRAF or RAS mutation, 20 μM, 24 hours): 0/34
susceptibility to growth inhibition ([2]; one cell line with both a BRAF and a RAS mutation): susceptible

Nc1ncn([C@H]2C[C@H](O)[C@@H](CO)O2)c(=O)n1 [5-aza-2′-deoxycytidine]
IGFBP7 expression ([3]; BRAF/RAS-wild type cell lines): no effect
IGFBP7 expression ([3]; BRAFV600E- and NRASQ61R-positive cell lines): restored IGFBP7 expression
